# Measurements taken from US20200361895A1, “NOVEL SULFONAMIDE CARBOXAMIDE COMPOUNDS” (Inflazome Limited, priority 2017, published 2020).
# Target: NLRP3 (Homo sapiens, UniProt Q96P20)
# Assay: THP-1 cells pyroptosis assay (LPS + nigericin, resazurin readout; THP IC50)
# Format: cell-based
# Set-up: Seed THP-1 cells (25,000 cells/well) containing 1.0 μg/ml LPS in 40 μl of RPMI medium; host or cells: THP-1 cells
# Description: THP-1 cells (ATCC #TIB-202) were grown in RPMI containing L-glutamine (Gibco #11835) supplemented with 1 mM sodium pyruvate (Sigma #S8636) and penicillin (100 units/ml)/streptomycin (0.1 mg/ml) (Sigma #P4333) in 10% Fetal Bovine Serum (FBS) (Sigma #F0804). The cells were routinely passaged and grown to confluency (˜10^6 cells/ml). On the day of the experiment, THP-1 cells were harvested and resuspended into RPMI medium (without FBS). The cells were then counted and viability (>90%) checked by Trypan blue (Sigma #T8154). Appropriate dilutions were made to give a concentration of 625,000 cells/ml. To this diluted cell solution was added LPS (Sigma #L4524) to give a 1 μg/ml Final Assay Concentration (FAC). 40 μl of the final preparation was aliquoted into each well of a 96-well plate. The plate thus prepared was used for compound screening.
# The following method step-by-step assay was followed for compound screening. • 1. Seed THP-1 cells (25,000 cells/well) containing 1.0 μg/ml LPS in 40 μl of RPMI medium (without FBS) in 96-well, black walled, clear bottom cell culture plates coated with poly-D-lysine (VWR #734-0317) • 2. Add 5 μcompound (8 points half-log dilution, with 10 μM top dose) or vehicle (DMSO 0.1% FAC) to the appropriate wells • 3. Incubate for 3 hrs at 37° C. and 5% CO2 • 4. Add 5 μnigericin (Sigma #N7143) (FAC 5 μM) to all wells • 5. Incubate for 1 hr at 37° C. and 5% CO2 • 6. At the end of the incubation period, spin plates at 300×g for 3 mins and remove supernatant • 7. Then add 50 μl of resazurin (Sigma #R7017) (FAC 100 μM resazurin in RPMI medium without FBS) and incubate plates for a further 1-2 hrs at 37° C. and 5% CO2 • 8. Plates were read in an Envision reader at Ex 560 nm and Em 590 nm • 9. IC50 data is fitted to a non-linear regression equation (log inhibitor vs response-variable slope 4-parameters)
# Sequence of NLRP3 (Q96P20 whole entry): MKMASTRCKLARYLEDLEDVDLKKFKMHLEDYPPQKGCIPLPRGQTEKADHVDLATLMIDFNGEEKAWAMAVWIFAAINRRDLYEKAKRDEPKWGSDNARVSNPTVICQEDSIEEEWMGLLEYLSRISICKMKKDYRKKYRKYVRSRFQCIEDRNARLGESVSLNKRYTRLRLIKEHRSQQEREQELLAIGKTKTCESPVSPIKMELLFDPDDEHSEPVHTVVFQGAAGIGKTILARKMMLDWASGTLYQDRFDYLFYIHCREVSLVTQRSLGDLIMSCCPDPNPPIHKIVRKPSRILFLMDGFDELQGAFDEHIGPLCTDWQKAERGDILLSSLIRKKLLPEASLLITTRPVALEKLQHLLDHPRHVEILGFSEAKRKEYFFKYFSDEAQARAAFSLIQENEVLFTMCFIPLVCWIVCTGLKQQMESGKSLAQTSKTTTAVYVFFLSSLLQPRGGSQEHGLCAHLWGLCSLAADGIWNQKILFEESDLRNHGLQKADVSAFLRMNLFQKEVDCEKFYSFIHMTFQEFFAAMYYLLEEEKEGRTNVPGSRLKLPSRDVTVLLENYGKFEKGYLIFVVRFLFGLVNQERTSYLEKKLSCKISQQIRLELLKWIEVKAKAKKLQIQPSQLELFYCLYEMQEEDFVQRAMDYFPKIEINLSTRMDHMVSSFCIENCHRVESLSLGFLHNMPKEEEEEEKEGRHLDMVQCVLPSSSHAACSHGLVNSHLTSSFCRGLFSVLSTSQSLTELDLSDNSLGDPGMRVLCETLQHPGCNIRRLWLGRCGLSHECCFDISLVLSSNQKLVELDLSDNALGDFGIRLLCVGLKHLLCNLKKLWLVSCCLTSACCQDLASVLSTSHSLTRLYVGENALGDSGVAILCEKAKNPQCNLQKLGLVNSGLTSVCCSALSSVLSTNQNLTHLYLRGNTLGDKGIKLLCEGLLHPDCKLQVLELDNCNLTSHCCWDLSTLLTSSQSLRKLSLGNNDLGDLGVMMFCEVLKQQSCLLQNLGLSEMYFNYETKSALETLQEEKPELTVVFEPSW
row,IC50,SMILES
1,≤ 5000 nM,"O=C(Nc1c(-c2ccncc2)cc(F)c2c1CCC2)NS(=O)(=O)Cc1ccccc1 [Example 130, N-((7-Fluoro-5-(pyridin-4-yl)-2,3-dihydro-1H-inden-4-yl)carbamoyl)-1-phenylmethanesulfonamide]"
2,≤ 10000 nM,"CC(C)CS(=O)(=O)NC(=O)Nc1c(-c2ccnc(C#N)c2)cc(F)cc1C(C)C [Example 131, N-((2-(2-Cyanopyridin-4-yl)-4-fluoro-6-isopropylphenyl)carbamoyl)-2-methylpropane-1-sulfonamide]"
3,≤ 1000 nM,"COc1cc(-c2cc(F)cc(C(C)C)c2NC(=O)NS(=O)(=O)CC(C)C)ccn1 [Example 132, N-((4-Fluoro-2-isopropyl-6-(2-methoxypyridin-4-yl)phenyl)carbamoyl)-2-methylpropane-1-sulfonamide]"
4,≤ 500 nM,"COc1cc(-c2ccc3c(c2NC(=O)NS(=O)(=O)CC(C)C)CCC3)ccn1 [Example 133, N-((5-(2-Methoxypyridin-4-yl)-2,3-dihydro-1H-inden-4-yl)carbamoyl)-2-methylpropane-1-sulfonamide]"
5,≤ 1000 nM,"CC(C)CS(=O)(=O)NC(=O)Nc1c(-c2ccncc2)cc(F)c2c1CCC2 [Example 134, N-((7-Fluoro-5-(pyridin-4-yl)-2,3-dihydro-1H-inden-4-yl)carbamoyl)-2-methylpropane-1-sulfonamide]"
6,≤ 1000 nM,"CC(C)c1cc(F)cc(-c2ccnc(C#N)c2)c1NC(=O)NS(=O)(=O)CCc1ccccc1 [Example 135, N-((2-(2-Cyanopyridin-4-yl)-4-fluoro-6-isopropylphenyl)carbamoyl)-2-phenylethanesulfonamide]"
7,≤ 500 nM,"COc1cc(-c2cc(F)cc(C(C)C)c2NC(=O)NS(=O)(=O)CCc2ccccc2)ccn1 [Example 136, N-((4-Fluoro-2-isopropyl-6-(2-methoxypyridin-4-yl)phenyl)carbamoyl)-2-phenylethanesulfonamide]"
8,≤ 500 nM,"COc1cc(-c2ccc3c(c2NC(=O)NS(=O)(=O)CCc2ccccc2)CCC3)ccn1 [Example 137, N-((5-(2-Methoxypyridin-4-yl)-2,3-dihydro-1H-inden-4-yl)carbamoyl)-2-phenylethanesulfonamide]"
9,≤ 5000 nM,"CC(C)c1cc(F)cc(-c2ccnc(C#N)c2)c1NC(=O)NS(=O)(=O)C(C)c1ccccc1 (stereo not drawn) [Example 139, N-((2-(2-Cyanopyridin-4-yl)-4-fluoro-6-isopropylphenyl)carbamoyl)-1-phenylethanesulfonamide]"
10,≤ 5000 nM,"COc1cc(-c2cc(F)cc(C(C)C)c2NC(=O)NS(=O)(=O)C(C)c2ccccc2)ccn1 (stereo not drawn) [Example 140, N-((4-Fluoro-2-isopropyl-6-(2-methoxypyridin-4-yl)phenyl)carbamoyl)-1-phenylethanesulfonamide]"
11,≤ 1000 nM,"COc1cc(-c2ccc3c(c2NC(=O)NS(=O)(=O)C(C)c2ccccc2)CCC3)ccn1 (stereo not drawn) [Example 141, N-((5-(2-Methoxypyridin-4-yl)-2,3-dihydro-1H-inden-4-yl)carbamoyl)-1-phenylethanesulfonamide]"
12,≤ 5000 nM,"CC(c1ccccc1)S(=O)(=O)NC(=O)Nc1c(-c2ccncc2)cc(F)c2c1CCC2 (stereo not drawn) [Example 142, N-((7-Fluoro-5-(pyridin-4-yl)-2,3-dihydro-1H-inden-4-yl)carbamoyl)-1-phenylethanesulfonamide]"
13,≤ 1000 nM,"COc1cc(-c2ccc3c(c2NC(=O)NS(C)(=O)=O)CCC3)ccn1 [Example 143, N-((5-(2-Methoxypyridin-4-yl)-2,3-dihydro-1H-inden-4-yl)carbamoyl)methanesulfonamide]"
14,≤ 5000 nM,"COc1cc(-c2cc3c(cc2NC(=O)NS(=O)(=O)c2ccn(C4CC4)n2)CCC3)ccn1 [Example 144, 1-Cyclopropyl-N-((6-(2-methoxypyridin-4-yl)-2,3-dihydro-1H-inden-5-yl)carbamoyl)-1H-pyrazole-3-sulfonamide]"
15,≤ 1000 nM,"CCN(CC)CCCS(=O)(=O)NC(=O)Nc1c(-c2ccnc(C#N)c2)cc(F)cc1C(C)C [Example 146, N-((2-(2-Cyanopyridin-4-yl)-4-fluoro-6-isopropylphenyl)carbamoyl)-3-(diethylamino)propane-1-sulfonamide]"
16,≤ 500 nM,"CCN(CC)CCCS(=O)(=O)NC(=O)Nc1c(-c2ccnc(OC)c2)cc(F)cc1C(C)C [Example 147, 3-(Diethylamino)-N-((4-fluoro-2-isopropyl-6-(2-methoxypyridin-4-yl)phenyl)carbamoyl)propane-1-sulfonamide]"
17,≤ 500 nM,"CCN(CC)CCCS(=O)(=O)NC(=O)Nc1c(-c2ccnc(OC)c2)ccc2c1CCC2 [Example 148, 3-(Diethylamino)-N-((5-(2-methoxypyridin-4-yl)-2,3-dihydro-1H-inden-4-yl)carbamoyl)propane-1-sulfonamide]"
18,≤ 500 nM,"CCN(CCCS(=O)(=O)NC(=O)Nc1c(-c2ccnc(OC)c2)cc(F)cc1C(C)C)Cc1ccccc1 [Example 150, 3-(Benzyl(ethyl)amino)-N-((4-fluoro-2-isopropyl-6-(2-methoxypyridin-4-yl)phenyl)carbamoyl)propane-1-sulfonamide]"
19,≤ 5000 nM,"CCN(CCCS(=O)(=O)NC(=O)Nc1c(-c2ccnc(C#N)c2)cc(F)cc1C(C)C)Cc1ccccc1 [Example 151, 3-(Benzyl(ethyl)amino)-N-((2-(2-cyanopyridin-4-yl)-4-fluoro-6-isopropylphenyl)carbamoyl)propane-1-sulfonamide]"
20,≤ 500 nM,"CCN(CCCS(=O)(=O)NC(=O)Nc1c(-c2ccnc(OC)c2)ccc2c1CCC2)Cc1ccccc1 [Example 152, 3-(Benzyl(ethyl)amino)-N-((5-(2-methoxypyridin-4-yl)-2,3-dihydro-1H-inden-4-yl)carbamoyl)propane-1-sulfonamide]"
21,≤ 5000 nM,"COCCCS(=O)(=O)NC(=O)Nc1c(-c2ccnc(C#N)c2)cc(F)cc1C(C)C [Example 154, N-((2-(2-Cyanopyridin-4-yl)-4-fluoro-6-isopropylphenyl)carbamoyl)-3-methoxypropane-1-sulfonamide]"
22,≤ 500 nM,"COCCCS(=O)(=O)NC(=O)Nc1c(-c2ccnc(OC)c2)cc(F)cc1C(C)C [Example 155, N-((4-Fluoro-2-isopropyl-6-(2-methoxypyridin-4-yl)phenyl)carbamoyl)-3-methoxypropane-1-sulfonamide]"
23,≤ 500 nM,"COCCCS(=O)(=O)NC(=O)Nc1c(-c2ccnc(OC)c2)ccc2c1CCC2 [Example 156, 3-Methoxy-N-((5-(2-methoxypyridin-4-yl)-2,3-dihydro-1H-inden-4-yl)carbamoyl)propane-1-sulfonamide]"
24,≤ 5000 nM,"COCCCS(=O)(=O)NC(=O)Nc1c(-c2ccncc2)cc(F)c2c1CCC2 [Example 157, N-((7-Fluoro-5-(pyridin-4-yl)-2,3-dihydro-1H-inden-4-yl)carbamoyl)-3-methoxypropane-1-sulfonamide]"
25,≤ 5000 nM,"CN1CCC(CS(=O)(=O)NC(=O)Nc2c(-c3ccncc3)cc(F)c3c2CCC3)C1 (stereo not drawn) [Example 165, N-((7-Fluoro-5-(pyridin-4-yl)-2,3-dihydro-1H-inden-4-yl)carbamoyl)-1-(1-methylpyrrolidin-3-yl) methanesulfonamide]"
26,≤ 1000 nM,"CCn1nc(S(=O)(=O)NC(=O)Nc2c(-c3cccc(OC)c3)ccc3c2CCC3)cc1CN(C)C [Example 194, 5-((Dimethylamino)methyl)-1-ethyl-N-((5-(3-methoxyphenyl)-2,3-dihydro-1H-inden-4-yl)carbamoyl)-1H-pyrazole-3-sulfonamide]"
27,≤ 5000 nM,"CC(C)c1cccc(-n2ccnc2)c1NC(=O)NS(=O)(=O)c1ccn(C(C)C)n1 [Example 204, N-((2-(1H-Imidazol-1-yl)-6-isopropylphenyl)carbamoyl)-1-isopropyl-1H-pyrazole-3-sulfonamide]"
28,≤ 5000 nM,"CC(C)n1ccc(S(=O)(=O)NC(=O)Nc2c(-c3cccnc3)cc(F)cc2-c2cccnc2)n1 [Example 208, N-((4-Fluoro-2,6-di(pyridin-3-yl)phenyl)carbamoyl)-1-isopropyl-1H-pyrazole-3-sulfonamide]"
29,≤ 5000 nM,"COc1cc(-c2ccc3ncccc3c2NC(=O)NS(=O)(=O)c2ccn(C(C)C)n2)ccn1 [Example 212, 1-Isopropyl-N-((6-(2-methoxypyridin-4-yl)quinolin-5-yl)carbamoyl)-1H-pyrazole-3-sulfonamide]"
30,≤ 10000 nM,"COc1cc(-c2ccc3ccncc3c2NC(=O)NS(=O)(=O)c2ccn(C(C)C)n2)ccn1 [Example 217, 1-Isopropyl-N-((7-(2-methoxypyridin-4-yl)isoquinolin-8-yl)carbamoyl)-1H-pyrazole-3-sulfonamide]"
